Several values for one entry are separate records, joined by “and”; a condition that tells them apart may be missing. Identical values can stand only once. Like-named read-outs stand apart in the source and are kept apart here.
Experiments:
[1] = test system: A2780; experiment: Photo- and cytotoxic activity determination (MTT), A2780 cells; type: cell-based; settings: normoxia; for A2780 PI (phototherapeutic index), IC50 dark/IC50 irradiated: 520 nm, dark tested up to 100 μM; for IC50: 48 h drug-free medium
Description: (§1) Having shown that the Ir(III)-COUPY conjugates can sensitize both type I and II ROS through spectroscopic techniques and readily internalize into living cells, their photocytotoxicity was screened in various cancer cell lines. This screening included two representative melanoma cell lines (human A375 and […] human SK-MEL-28) and cancer cells with resistance to the clinical drug cisplatin. For the latter, both sensitive and cisplatin-resistant ovarian cancer cells (A2780 and A2780cis) as well as HeLa cells, which also show a degree of chemoresistance to the platinum anticancer drug in vitro,[54] were used. For the determination of dark and light cytotoxicity, dose–response curves were assayed from both conditions to provide the correspondent IC50 values, which correspond to the concentration needed for inhibition of cell growth by 50%. Phototherapeutic index (PI) was calculated as the ratio of dark to light IC50 value for each compound.
(§2) A375, HeLa, and SK-MEL-28 cells were cultured in Dulbecco’s modified Eagle medium (DMEM) supplemented with 10% FBS, L-glutamine, and 1% penicillin–streptomycin. A2780 and A2780cis cells were grown in RPMI-1640 cell medium supplemented with 10% fetal bovine serum (FBS) and 2 mM L-glutamine. Acquired resistance to cisplatin in the A2780cis cell line was maintained by adding cisplatin 1 μM to culture medium every second passage. Cells were cultured in a humidified incubator at 310 K with 5% CO2 atmosphere and subcultured two or three times a week with appropriate densities and were confirmed to be mycoplasma-free using a standard Hoechst DNA staining method.
(§3) A2780, A2780cis, HeLa, A375, and SK-MEL-28 cells were maintained at logarithmic growth-phase and cultured in 96-well plates at a density of 5000 cells/well in complete medium for 24 h at 310 K, 5% CO2 in a humidified incubator. For hypoxia experiments, a hypoxia condition was set up by Tissue Culture Service at University of Murcia using nitrogen (N2) to displace O2 down to a minimum of 2% in a Forma Steri-Cycle i160 incubator (Thermo Fisher Scientific). Serial dilutions of the compounds were added at the final concentrations in the range of 0–100 μM in a final volume of 100 μL per well. A light-based treatment schedule was performed as follows: 1 h incubation with the compounds in the dark, followed by 1 h incubation under irradiation conditions by placing the Photoreactor EXPO-LED from Luzchem (Canada) fitted with green lamps (final light intensity applied of 1.5 mW/cm^2 at λmax = 520 nm) inside the CO2 incubator. All the cell culture plates subjected to light irradiation included untreated controls to verify that cell viability was not affected by light. Then, treatment-containing media was removed, and fresh media was added for a 48 h cell recovery period; the temperature throughout the experiment remained at 310 K. Dark control samples were placed in the same dark conditions and then kept incubated for 1 h in the dark in the humidified CO2 incubator. Medium was then aspirated by suction, cells were loaded with 50 μL of MTT solution (1 mg/mL) for additional 4 h and then removed, and 50 μL of DMSO was added to solubilize the purple formazan crystals formed in active cells. The absorbance was measured at 570 nm using a microplate reader (FLUOstar Omega), and the IC50 values were calculated based on the inhibitory rate curves using the following equation [drawing 4] 4 where I represents the percentage inhibition of viability observed, Imax is the maximal inhibitory effect, IC50 is the concentration that inhibits 50% of maximal growth, C is the concentration of the treatment, and n is the slope of the semi-logarithmic dose–response sigmoidal curves. The non-linear fitting was performed using SigmaPlot 14.0 software. All experiments were performed in three independent studies with n = 3 replicates per concentration level. For a detailed phototoxicity procedure, ref ([43]) includes technical explanations.

[2] = test system: A2780cis cells; experiment: Photo- and cytotoxic activity determination (MTT), A2780cis cells, normoxia or hypoxia; type: cell-based; settings: for Partial inhibition (% of cell growth inhibition with respect to untreated controls), Hypoxia / Partial inhibition (% of cell growth inhibition with respect to untreated controls), Normoxia: 250 μM, 2 h incubation in the dark, 48 h drug-free recovery; for PI (phototherapeutic index), blue light: 465 nm; for Hypoxia PI (phototherapeutic index) / Normoxia PI (phototherapeutic index): dark tested up to 250 μM; for A2780cis PI (phototherapeutic index), IC50 dark/IC50 irradiated: dark tested up to 100 μM
Description: as §1, §2
as §3, with “Serial dilutions of the compounds were added at the final concentrations in the range of 0–100 μM in a final volume of 100 μL per well.” left out

[3] = test system: A375; experiment: Photo- and cytotoxic activity determination (MTT), A375 cells; type: cell-based, human; settings: normoxia; for A375 PI (phototherapeutic index), IC50 dark/IC50 irradiated: 520 nm, dark tested up to 100 μM; for IC50: 48 h drug-free medium
Description: as §1, §2, §3

[4] = test system: HeLa; experiment: Photo- and cytotoxic activity determination (MTT), HeLa cells; type: cell-based; settings: normoxia; for HeLa PI (phototherapeutic index), IC50 dark/IC50 irradiated: 520 nm, dark tested up to 100 μM; for IC50: 48 h drug-free medium
Description: as §1, §2, §3

[5] = 1 h incubation + 1 h green light 520 nm, 1.5 mW cm^–2, read-out: A2780 light IC50
[6] = kept in the dark, 2 h treatment, read-out: A2780 dark IC50
[7] = A2780cis, 1 h incubation + 1 h blue light 465 nm, 5 mW/cm2, 48 h drug-free, read-out: 465 nm IC50
[8] = A2780cis, hypoxia 2% O2, 520 nm
[9] = A2780cis, hypoxia 2% O2, dark, tested up to 250 μM, read-out: Hypoxia Dark IC50
[10] = A2780cis, normoxia 21% O2, 520 nm
[11] = A2780cis, normoxia 21% O2, dark, tested up to 250 μM, read-out: Normoxia Dark IC50
[12] = hypoxia, 520 nm, read-out: A2780cis Light 520 nm IC50 (microM) Hypoxia
[13] = hypoxia, dark, read-out: A2780cis Dark IC50 (microM) Hypoxia
[14] = normoxia, 1 h incubation + 1 h green light 520 nm, 1.5 mW cm^–2, 48 h drug-free medium, read-out: A2780cis light IC50
[15] = normoxia, dark, up to 250 microM, read-out: A2780cis Dark IC50 (microM) Normoxia
[16] = normoxia, kept in the dark, tested up to 100 μM, 2 h treatment, 48 h drug-free medium, read-out: A2780cis dark IC50
[17] = 1 h incubation + 1 h green light 520 nm, 1.5 mW cm^–2, read-out: A375 light IC50
[18] = kept in the dark, 2 h treatment, read-out: A375 dark IC50
[19] = 1 h incubation + 1 h green light 520 nm, 1.5 mW cm^–2, read-out: HeLa light IC50
[20] = kept in the dark, 2 h treatment, read-out: HeLa dark IC50

Structure (SMILES) | A2780 PI (phototherapeutic index), IC50 dark/IC50 irradiated [1] | IC50 [1, 5] [µM] | IC50 [1, 6] [µM] | Partial inhibition (% of cell growth inhibition with respect to untreated controls), Hypoxia ([2]; A2780cis, hypoxia) [%] | Partial inhibition (% of cell growth inhibition with respect to untreated controls), Normoxia ([2]; A2780cis, normoxia) [%] | Hypoxia PI (phototherapeutic index) [2, 8] | IC50 [2, 9] [µM] | Normoxia PI (phototherapeutic index) [2, 10] | IC50 [2, 11] [µM] | IC50 [2, 13] [µM] | A2780cis PI (phototherapeutic index), IC50 dark/IC50 irradiated ([2]; normoxia, 520 nm) | IC50 [2, 14] [µM] | IC50 [2, 15] [µM] | IC50 [2, 16] [µM] | A375 PI (phototherapeutic index), IC50 dark/IC50 irradiated [3] | IC50 [3, 17] [µM] | IC50 [3, 18] [µM] | HeLa PI (phototherapeutic index), IC50 dark/IC50 irradiated [4] | IC50 [4, 19] [µM] | IC50 [4, 20] [µM] | also measured
CCCCn1c2[n+](c3cc(C(=O)NCCCNC(=O)C[n+]4ccc(/C(C#N)=C5/C=C(C)c6ccc(N(CC)CC)cc6O5)cc4)ccc31)[Ir-3]13([c]4ccccc4-c4[nH]c5ccccc5[n+]41)([c]1ccccc1-c1[nH]c4ccccc4[n+]13)[n+]1c-2ccc2ccccc21 [3a] | > 94 | 1.07 ± 0.07 | > 100 | 49 ± 4 | 58 ± 7 | > 65.8 and > 66 | > 250 | > 357.1 and > 357 | > 250 | > 250 | > 143 | 0.7 ± 0.06 | > 250 | > 100 | > 6 | 18 ± 3 | > 100 | > 12 | 8.6 ± 0.7 | > 100 | PI (phototherapeutic index), blue light ([2]; A2780cis): > 52.6; IC50 [2, 7]: 1.9 µM; IC50 [2, 12]: 3.8 ± 0.3 µM
CCCCn1c2[n+](c3cc(C(=O)NCCCNC(=O)C[n+]4ccc(/C(C#N)=C5/C=C(C)c6ccccc6O5)cc4)ccc31)[Ir-3]13([c]4ccccc4-c4[nH]c5ccccc5[n+]41)([c]1ccccc1-c1[nH]c4ccccc4[n+]13)[n+]1c-2ccc2ccccc21 [3b] | > 14 | 7.1 ± 0.1 | > 100 | 45 ± 6 | 63 ± 5 | > 8.1 | > 250 | > 4.1 | > 250 | > 250 | > 1.6 | 61 ± 8 | > 250 | > 100 | > 1.3 | 78 ± 6 | > 100 | > 6 | 18 ± 2 | > 100 | PI (phototherapeutic index), blue light ([2]; A2780cis): > 41.7; IC50 [2, 7]: 2.4 µM; IC50 ([2]; A2780cis, hypoxia 2% O2, 1 h incubation + 1 h green light 520 nm, 48 h drug-free, read-out: Hypoxia 520 nm IC50): 31 µM
CCCCn1c2[n+](c3cc(C(=O)NCCCNC(=O)C[n+]4ccc(/C(C#N)=C5/C=C(C)c6cc7c8c(c6O5)CCCN8CCC7)cc4)ccc31)[Ir-3]13([c]4ccccc4-c4[nH]c5ccccc5[n+]41)([c]1ccccc1-c1[nH]c4ccccc4[n+]13)[n+]1c-2ccc2ccccc21 [3c] | > 48 | 2.1 ± 0.2 | > 100 | 61 ± 8 | 74 ± 10 | > 31.3 and > 31 | > 250 | > 240.4 and > 240 | > 250 | > 250 | > 96 | 1.04 ± 0.02 | > 250 | > 100 | > 3 | 38 ± 5 | > 100 | > 2.2 | 45 ± 4 | > 100 | IC50 [2, 12]: 8 ± 1 µM
CCCCn1c2[n+](c3cc(C(=O)NCCCCCC(=O)NCCCNC(=O)C[n+]4ccc(/C(C#N)=C5/C=C(C)c6ccc(N(CC)CC)cc6O5)cc4)ccc31)[Ir-3]13([c]4ccccc4-c4[nH]c5ccccc5[n+]41)([c]1ccccc1-c1[nH]c4ccccc4[n+]13)[n+]1c-2ccc2ccccc21 [3d] | > 56 | 1.78 ± 0.07 | > 100 | 27 ± 4 | 21 ± 1 | > 131.6 and > 131 | > 250 | > 227.3 and > 227 | > 250 | > 250 | > 91 | 1.1 ± 0.2 | > 250 | > 100 | > 2.2 | 46 ± 4 | > 100 | > 50 | 2 ± 0.4 | > 100 | IC50 [2, 12]: 1.9 ± 0.2 µM

Reference: paper PMC10291553, “Exploring Structure–Activity Relationships in Photodynamic Therapy Anticancer Agents Based on Ir(III)-COUPY Conjugates” (Journal of Medicinal Chemistry, 2023)
